US20170037028A1 (BAYER PHARMA AKTIENGESELLSCHAFT, priority 2013, published 2017)

Molecular target: T1, GLUT1 (Homo sapiens, UniProt P11166)
T1 sequence (P11166 1-492): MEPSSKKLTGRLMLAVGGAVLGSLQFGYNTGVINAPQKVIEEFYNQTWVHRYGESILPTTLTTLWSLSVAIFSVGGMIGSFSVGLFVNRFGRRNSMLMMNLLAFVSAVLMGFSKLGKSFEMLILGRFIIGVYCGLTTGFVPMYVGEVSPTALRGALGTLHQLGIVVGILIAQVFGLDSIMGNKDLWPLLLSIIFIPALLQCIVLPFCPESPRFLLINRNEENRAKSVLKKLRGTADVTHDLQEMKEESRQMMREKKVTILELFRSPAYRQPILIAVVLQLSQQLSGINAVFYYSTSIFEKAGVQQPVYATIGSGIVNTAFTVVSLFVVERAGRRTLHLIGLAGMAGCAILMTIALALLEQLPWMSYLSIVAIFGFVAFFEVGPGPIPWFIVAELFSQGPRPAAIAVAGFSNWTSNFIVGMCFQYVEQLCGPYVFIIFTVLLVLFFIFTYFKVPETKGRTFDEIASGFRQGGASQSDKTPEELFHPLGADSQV
Assay: Indirect measurement of GLUT1 activity by quantification of intracellular ATP levels (glucose induced ATP increase)
Format: cell-based
Set-up: endogenous in cells; host or cells: DLD1 or CHO-K1
Details: read-out: IC50 regarding glucose induced ATP increase (GLUT1 inhibition)
In short: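 Intracellular ATP was measured by CellTiter-Glo luminescence as an indirect readout of transport: glucose-driven for GLUT1, fructose-driven for GLUT2. DLD1 or CHO-K1 cells were used alongside an oxidative phosphorylation inhibitor. Beforehand, cells were held overnight in glucose-free 1% FCS medium to deplete ATP.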

With `Cc1nn(Cc2ccc(C#N)cc2)c(C)c1NC(=O)c1cc(C(N)=O)nc2cccc(F)c12` [Example 262, N^4-[1-(4-cyanobenzyl)-3,5-dimethyl-1H-pyrazol-4-yl]-5-fluoroquinoline-2,4-dicarboxamide] as the molecule, how does the IC50 read?
Its IC50 is 1.2 nM.

How did the IC50 turn out when `Cc1nn(Cc2ccc(C#N)cc2)c(C)c1NC(=O)c1cc(C(N)=O)nc2c(F)cccc12` [Example 263, N^4-[1-(4-cyanobenzyl)-3,5-dimethyl-1H-pyrazol-4-yl]-8-fluoroquinoline-2,4-dicarboxamide] was run?
The IC50 was 3.9 nM.

For `Cc1ccc2nc(C(N)=O)cc(C(=O)Nc3c(C)nn(Cc4ccc(C#N)cc4)c3C)c2c1` [Example 264, N^4-[1-(4-cyanobenzyl)-3,5-dimethyl-1H-pyrazol-4-yl]-6-methylquinoline-2,4-dicarboxamide], which IC50 is on record?
Its IC50 is 2.6 nM.

How did the IC50 turn out when `COc1cc(C(=O)Nc2c(C)nn(Cc3ccc(C#N)cc3)c2C)c2cc(F)ccc2n1` [Example 265, N-[1-(4-cyanobenzyl)-3,5-dimethyl-1H-pyrazol-4-yl]-6-fluoro-2-methoxyquinoline-4-carboxamide] was run?
Its IC50 is 6.6 nM.

How did the IC50 turn out when `Cc1nn(Cc2ccccc2C#N)c(C)c1NC(=O)c1cc(C(N)=O)nc2cc(F)ccc12` [Example 266, N^4-[1-(2-cyanobenzyl)-3,5-dimethyl-1H-pyrazol-4-yl]-7-fluoroquinoline-2,4-dicarboxamide] was run?
Its IC50 is 1 nM.

With `Cc1nn(Cc2ccccc2C#N)c(C)c1NC(=O)c1cc(C(N)=O)nc2cccc(F)c12` [Example 267, N^4-[1-(2-cyanobenzyl)-3,5-dimethyl-1H-pyrazol-4-yl]-5-fluoroquinoline-2,4-dicarboxamide] as the molecule, how does the IC50 read?
The IC50 was 2.6 nM.

Which IC50 does the source give for `Cc1nn(Cc2ccccc2C#N)c(C)c1NC(=O)c1cc(C(N)=O)nc2ccc(Br)cc12` [Example 268, 6-bromo-N^4-[1-(2-cyanobenzyl)-3,5-dimethyl-1H-pyrazol-4-yl]quinoline-2,4-dicarboxamide] here?
The IC50 was 0.6 nM.

For `Cc1nn(Cc2ccccc2C#N)c(C)c1NC(=O)c1cc(C(N)=O)nc2c(F)cc(Cl)cc12` [Example 269, 6-chloro-N^4-[1-(2-cyanobenzyl)-3,5-dimethyl-1H-pyrazol-4-yl]-8-fluoroquinoline-2,4-dicarboxamide], which IC50 is on record?
The IC50 was 1.5 nM.

How did the IC50 turn out when `Cc1c(NC(=O)c2cc(C(N)=O)nc3cc(F)c(Cl)cc23)c(C(F)(F)F)nn1Cc1ccccc1C#N` [Example 270, 6-chloro-N^4-[1-(2-cyanobenzyl)-5-methyl-3-(trifluoromethyl)-1H-pyrazol-4-yl]-7-fluoroquinoline-2,4-dicarboxamide] was run?
The IC50 was 1.8 nM.

Which IC50 does the source give for `Cc1c(NC(=O)c2cc(C(N)=O)nc3ccccc23)c(C(F)(F)F)nn1Cc1ccccc1C#N` [Example 271, N^4-[1-(2-cyanobenzyl)-5-methyl-3-(trifluoromethyl)-1H-pyrazol-4-yl]quinoline-2,4-dicarboxamide] here?
The IC50 was 3.6 nM.

Which IC50 does the source give for `Cc1c(NC(=O)c2cc(C(N)=O)nc3cc(F)ccc23)c(C(F)(F)F)nn1Cc1ccccc1C#N` [Example 272, N^4-[1-(2-cyanobenzyl)-5-methyl-3-(trifluoromethyl)-1H-pyrazol-4-yl]-7-fluoroquinoline-2,4-dicarboxamide] here?
Its IC50 is 2.5 nM.

`Cc1c(NC(=O)c2cc(C(N)=O)nc3cccc(F)c23)c(C(F)(F)F)nn1Cc1ccccc1C#N` [Example 273, N^4-[1-(2-cyanobenzyl)-5-methyl-3-(trifluoromethyl)-1H-pyrazol-4-yl]-5-fluoroquinoline-2,4-dicarboxamide] was tested. Which IC50 did it give?
The IC50 was 5.9 nM.

`Cc1c(NC(=O)c2cc(C(N)=O)nc3ccc(Br)cc23)c(C(F)(F)F)nn1Cc1ccccc1C#N` [Example 274, 6-bromo-N^4-[1-(2-cyanobenzyl)-5-methyl-3-(trifluoromethyl)-1H-pyrazol-4-yl]quinoline-2,4-dicarboxamide] was tested. Which IC50 did it give?
The IC50 was 1 nM.

For `COc1ccc(Cn2nc(C)c(NC(=O)c3cc(C(N)=O)nc4cc(F)ccc34)c2C)cc1` [Example 275, 7-fluoro-N^4-[1-(4-methoxybenzyl)-3,5-dimethyl-1H-pyrazol-4-yl]quinoline-2,4-dicarboxamide], which IC50 is on record?
The IC50 was 1.1 nM.

How did the IC50 turn out when `COc1ccc(Cn2nc(C)c(NC(=O)c3cc(C(N)=O)nc4c(F)cc(Cl)cc34)c2C)cc1` [Example 276, 6-chloro-8-fluoro-N^4-[1-(4-methoxybenzyl)-3,5-dimethyl-1H-pyrazol-4-yl]quinoline-2,4-dicarboxamide] was run?
The IC50 was 1.3 nM.

Which IC50 does the source give for `COc1ccc(Cn2nc(C(F)(F)F)c(NC(=O)c3cc(C(N)=O)nc4ccccc34)c2C)cc1` [Example 277, N^4-[1-(4-methoxybenzyl)-5-methyl-3-(trifluoromethyl)-1H-pyrazol-4-yl]quinoline-2,4-dicarboxamide] here?
Its IC50 is 1.8 nM.

For `COc1ccc(Cn2nc(C(F)(F)F)c(NC(=O)c3cc(C(N)=O)nc4cc(F)c(Cl)cc34)c2C)cc1` [Example 278, 6-chloro-7-fluoro-N^4-[1-(4-methoxybenzyl)-5-methyl-3-(trifluoromethyl)-1H-pyrazol-4-yl]quinoline-2,4-dicarboxamide], which IC50 is on record?
Its IC50 is 1.4 nM.

Which IC50 does the source give for `COc1ccc(Cn2nc(C(F)(F)F)c(NC(=O)c3cc(C(N)=O)nc4cc(F)c(F)cc34)c2C)cc1` [Example 279, 6,7-difluoro-N^4-[1-(4-methoxybenzyl)-5-methyl-3-(trifluoromethyl)-1H-pyrazol-4-yl]quinoline-2,4-dicarboxamide] here?
Its IC50 is 1.4 nM.

For `COc1ccc(Cn2nc(C(F)(F)F)c(NC(=O)c3cc(C(N)=O)nc4ccccc34)c2C)cn1` [Example 280, N^4-{1-[(6-methoxypyridin-3-yl)methyl]-5-methyl-3-(trifluoromethyl)-1H-pyrazol-4-yl}quinoline-2,4-dicarboxamide], which IC50 is on record?
The IC50 was 1.1 nM.

For `COc1ccc(Cn2nc(C(F)(F)F)c(NC(=O)c3cc(C(N)=O)nc4cc(F)c(Cl)cc34)c2C)cn1` [Example 281, 6-chloro-7-fluoro-N^4-{1-[(6-methoxypyridin-3-yl)methyl]-5-methyl-3-(trifluoromethyl)-1H-pyrazol-4-yl}quinoline-2,4-dicarboxamide], which IC50 is on record?
Its IC50 is 1.3 nM.

`COc1ccc(Cn2nc(C)c(NC(=O)c3cc(C(N)=O)nc4ccccc34)c2C)cn1` [Example 282, N^4-{1-[(6-methoxypyridin-3-yl)methyl]-3,5-dimethyl-1H-pyrazol-4-yl}quinoline-2,4-dicarboxamide] was tested. Which IC50 did it give?
The IC50 was 3.2 nM.

How did the IC50 turn out when `COc1ccc(Cn2nc(C)c(NC(=O)c3cc(C(N)=O)nc4cc(F)c(Cl)cc34)c2C)cn1` [Example 283, 6-chloro-7-fluoro-N^4-{1-[(6-methoxypyridin-3-yl)methyl]-3,5-dimethyl-1H-pyrazol-4-yl}quinoline-2,4-dicarboxamide] was run?
The IC50 was 1.2 nM.

`COc1ccc(CCCn2nc(C)c(NC(=O)c3cc(C(N)=O)nc4ccccc34)c2C)cc1` [Example 284, N^4-{1-[3-(4-methoxyphenyl)propyl]-3,5-dimethyl-1H-pyrazol-4-yl}quinoline-2,4-dicarboxamide] was tested. Which IC50 did it give?
The IC50 was 9 nM.

`Cc1nn(Cc2ccncc2C#N)c(C)c1NC(=O)c1cc(C(N)=O)nc2cc(F)c(Cl)cc12` [Example 285, 6-chloro-N^4-{1-[(3-cyanopyridin-4-yl)methyl]-3,5-dimethyl-1H-pyrazol-4-yl}-7-fluoroquinoline-2,4-dicarboxamide] was tested. Which IC50 did it give?
Its IC50 is 3.4 nM.

How did the IC50 turn out when `Cc1nn(Cc2ccncc2C#N)c(C)c1NC(=O)c1cc(C(N)=O)nc2ccccc12` [Example 286, N^4-{1-[(3-cyanopyridin-4-yl)methyl]-3,5-dimethyl-1H-pyrazol-4-yl}quinoline-2,4-dicarboxamide] was run?
Its IC50 is 35.6 nM.
